The results in this text go back to the supplement of paper PMC10307832.

Common to all, as to assay: relative viability (nuclei count vs DMSO), 5 days (fraction); higher = more cells survive
Compound in the assay “Zosuquidar + Linsitinib”: O[C@@H](COc1cccc2ncccc12)CN1CCN([C@@H]2c3ccccc3[C@@H]3[C@H](c4ccccc42)C3(F)F)CC1 [Zosuquidar] + C[C@]1(O)C[C@@H](c2nc(-c3ccc4ccc(-c5ccccc5)nc4c3)c3c(N)nccn32)C1 [Linsitinib] (partner 1 µM)
The gist of the method:
(§1)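 One day after seeding in 1536-well plates, lung cancer cell lines were dosed by pin tool. Dosing was either single-drug or a fixed anchor-drug dose plus five library-drug doses (not always all listed) in √10 steps. After 5 days, nuclei were stained in one fix-and-stain step and counted on 4× images, and relative viability is the nuclei count of treated wells over that of vehicle wells, given as the median of duplicate plates.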

Compound in the assay “Zosuquidar + Pictilisib”: O[C@@H](COc1cccc2ncccc12)CN1CCN([C@@H]2c3ccccc3[C@@H]3[C@H](c4ccccc42)C3(F)F)CC1 [Zosuquidar] + CS(=O)(=O)N1CCN(Cc2cc3nc(-c4cccc5[nH]ncc45)nc(N4CCOCC4)c3s2)CC1 [Pictilisib] (partner 1 µM)
The gist of the method:
as §1

Compound in the assay “Kobe2602 + Pemetrexed”: C1=CC(=CC=C1NC(=S)NNC2=C(C=C(C=C2[N+](=O)[O-])C(F)(F)F)[N+](=O)[O-])F [Kobe2602] + Nc1nc2[nH]cc(CCc3ccc(C(=O)N[C@@H](CCC(=O)O)C(=O)O)cc3)c2c(=O)[nH]1 [Pemetrexed] (partner 0.2 µM)
The gist of the method: as §1

Compound in the assay “Kobe2602 + Alpelisib”: C1=CC(=CC=C1NC(=S)NNC2=C(C=C(C=C2[N+](=O)[O-])C(F)(F)F)[N+](=O)[O-])F [Kobe2602] + Cc1nc(NC(=O)N2CCC[C@H]2C(N)=O)sc1-c1ccnc(C(C)(C)C(F)(F)F)c1 [Alpelisib] (partner 2 µM)
In short, it runs like this:
as §1

Consider UMC-11, for which the relative viability in the assay with Zosuquidar + Linsitinib (first compound 0.01 µM) is 0.976; with Zosuquidar + Linsitinib (first compound 0.03162 µM), 0.98; in the assay with Zosuquidar + Linsitinib (first compound 0.1 µM) it was 1.05; in the assay with Zosuquidar + Linsitinib (first compound 0.3162 µM), 1.07; with Zosuquidar + Linsitinib (first compound 1 µM), 1.07; with Zosuquidar + Pictilisib (first compound 0.01 µM) it was 0.663. The relative viability turned out to be 0.92 with Zosuquidar + Pictilisib (first compound 0.03162 µM); 0.707 with Zosuquidar + Pictilisib (first compound 0.1 µM); 0.881 with Zosuquidar + Pictilisib (first compound 0.3162 µM); 0.777 with Zosuquidar + Pictilisib (first compound 1 µM); 0.805 in the assay with Kobe2602 + Pemetrexed (first compound 0.2 µM); 0.83 with Kobe2602 + Pemetrexed (first compound 0.6325 µM). Further, the relative viability was 0.822 with Kobe2602 + Pemetrexed (first compound 2 µM); 0.788 with Kobe2602 + Pemetrexed (first compound 6.325 µM); 0.779 in the assay with Kobe2602 + Pemetrexed (first compound 20 µM); 1 in the assay with Kobe2602 + Alpelisib (first compound 0.2 µM); 1.03 in the assay with Kobe2602 + Alpelisib (first compound 0.6325 µM); 0.954 with Kobe2602 + Alpelisib (first compound 2 µM). In addition, the values for the relative viability with Kobe2602 + Alpelisib (first compound 6.325 µM) and in the assay with Kobe2602 + Alpelisib (first compound 20 µM) were 0.94 and 0.976, respectively.
